Results as given in ChEMBL document CHEMBL5385947, “Tepuazines A-E: Phenazine Glycosides from a Venezuelan Quartz-Rich (Tepui) Cave Soil-Derived Streptomyces virginiae CMB-CA091” (J Nat Prod, 2024).

What was measured:
Candida albicans = test: Antifungal activity against Candida albicans ATCC 10231 assessed as inhibition of bacterial growth; type: functional, organism-based
Escherichia coli = test: Antibacterial activity against Escherichia coli ATCC 11775 assessed as inhibition of bacterial growth; type: functional, organism-based
Bacillus subtilis = test: Antibacterial activity against Bacillus subtilis ATCC 6633 assessed as inhibition of bacterial growth; type: functional, organism-based
Staphylococcus aureus = test: Antibacterial activity against Staphylococcus aureus ATCC 25923 assessed as inhibition of bacterial growth; type: functional, organism-based
SW-620 = test: Cytotoxicity against human SW620 cells assessed as inhibition of cell growth; type: functional, cell-based
NCI-H460 = test: Cytotoxicity against human NCI-H460 cells assessed as inhibition of cell growth; type: functional, cell-based

Measured: IC50

O=C(O)c1cc2c(c3nc4c(O)cccc4nc13)[C@H]1Cc3nc4cccc(O)c4nc3[C@@H](O2)[C@H]1O
> 30 µM: all assays above

C[C@H]1O[C@H](Oc2cccc3nc4ccccc4nc23)[C@@H](O)[C@@H](O)[C@@H]1O
> 30 µM: all assays above

C[C@@H]1O[C@@H](Oc2cc(C(=O)O)c3nc4cccc(O)c4nc3c2)[C@H](O)[C@H](O)[C@H]1O
> 30 µM: all assays above

O=C(O)c1cc2c(c3nc4c(O)cccc4nc13)[C@@H]1Cc3nc4cccc(O)c4nc3[C@@](O)(C1)O2
> 30 µM: all assays above

C[C@@H]1O[C@@H](Oc2cccc3nc4c(C(=O)O)cc5c(c4nc23)[C@H]2Cc3nc4cccc(O)c4nc3[C@@H](O5)[C@H]2O)[C@H](O)[C@H](O)[C@H]1O
> 30 µM: all assays above

C[C@@H]1O[C@@H](Oc2cccc3nc4c(C(=O)O)cc5c(c4nc23)[C@@H]2Cc3nc4cccc(O)c4nc3[C@@](O)(C2)O5)[C@H](O)[C@H](O)[C@H]1O
> 30 µM: all assays above

CN(c1ccc(C(=O)O)cc1)c1cccc2nc3c(O)cccc3nc12 [IZUMIPHENAZINE C]
> 30 µM: all assays above

C[C@H]1O[C@H](Oc2cccc3nc4c(N(C)c5ccc(C(=O)O)cc5)cccc4nc23)[C@@H](O)[C@@H](O)[C@@H]1O
> 30 µM: all assays above
